In patent US20030032000A1, “Method for analyzing cellular events” (Signature BioScience Inc., priority 2001, published 2003):

Columns and labels:
CHOk1 cells = assay: MCS cellular activity assay in un-transfected CHOk1 wild-type cells; details: various concentrations of carbachol, signal integrated over 50 MHz to 1 GHz
calcium flux = assay: MCS detection of calcium flux modifiers in wild-type and transfected cells; format: cell-based, Chinese Hampster
Description: Ability to detect other calcium flux modifies was tested using ionomycin (an ionophore).

| SMILES | integrated MCS signal over time versus buffer (CHOk1 cells) | inhibition of ionomycin effect, MCS (calcium flux) |
| --- | --- | --- |
| C[N+](C)(C)CCOC(N)=O [carbachol] | essentially no change in signal over time | – |
| C/C=C(/C)C(=O)O[C@H]1C(C)=C2[C@H]([C@@H]1OC(=O)CCCCCCC)[C@@](C)(OC(C)=O)C[C@H](OC(=O)CCC)[C@@]1(O)[C@H]2OC(=O)[C@@]1(C)O [thapsigargin] | – | inhibit ionomycin |
